Source: US8445653B2, “Freeze-dried preparation of stabilized anthracycline compound” (Dainippon Sumitomo Pharma, priority 2002, dated 2013)
Where a name gives a salt, the structure may show the parent alone. Read-outs that look alike come from different tables or passages of the source.

How the values were obtained:
[1] = injection sold in Japan dissolved in distilled water for injection or physiological saline solution; cited from earlier work
[2] = Degradation in solution state at controlled solution temperature (Experiment 4); type: physicochemical
Procedure: To amrubicin hydrochloride (20 mg potency) in a glass beaker were added L-cysteine hydrochloride monohydrate (3.2 mg) and lactose (50 mg) as an excipient, and the resultant was dissolved in a distilled water for injection. The pH value of the solution was slightly adjusted to about pH 3 with a trace amount of sodium hydroxide and hydrochloric acid, and the resulting solution was put into a temperature-controlled bath at 5° C., 10° C., 15° C. and 25° C. The solution was sampled at the start, 6 hours later, and 24 hours later, and the degradation products therein were measured by HPLC method. The increased amounts of the desaccharified compound (2) and the deaminated compound (3) from those at the start are shown in Table 4.

[3] = pH dependence of generation of deaminated compound (3) from amrubicin hydrochloride; type: physicochemical
Procedure: (§1) On the contrary, since amrubicin hydrochloride tends to generate a deaminated compound (3) at a pH value of 3.5 or above, it is unstable at a high pH value as shown in the above anthracycline anticancer agents, and when the lyophilized preparation of amrubicin hydrochloride for clinical administration is dissolved in a physiological saline solution or a 5% glucose injection, the pH value thereof is 2.4 to 3.0.

[4] = pH of anthracycline injections when dissolved; type: physicochemical; conditions: lyophilized preparation for clinical administration dissolved in physiological saline solution or 5% glucose injection
Procedure: Actually, when the anthracycline anticancer agents being sold in Japan (all of them are injections) are dissolved in a distilled water for injection or a physiological saline solution, the pH values thereof are as follows (Drugs (ethical drugs) in Japan, 24 ed., 2001, edited by Japan Pharmaceutical Information Center).
as §1

[5] = Turbidity of injection solution prepared from lyophilized amrubicin preparation; type: physicochemical
[6] = solution about pH 3, 5° C., 6 h
[7] = solution about pH 3, 5° C., 24 h
[8] = solution about pH 3, 10° C., 0 h
[9] = solution about pH 3, 10° C., 6 h
[10] = solution about pH 3, 10° C., 24 h
[11] = solution about pH 3, 15° C., 0 h
[12] = solution about pH 3, 15° C., 6 h
[13] = solution about pH 3, 15° C., 24 h
[14] = solution about pH 3, 25° C., 0 h
[15] = solution about pH 3, 25° C., 6 h
[16] = solution about pH 3, 25° C., 24 h

CC(=O)[C@]1(O)Cc2c(O)c3c(c(O)c2[C@@H](O[C@H]2C[C@H](N)[C@H](O)[C@H](C)O2)C1)C(=O)c1ccccc1C3=O [Idarubicin hydrochloride]
pH value [1]: 5.0-7.0

COc1cccc2c1C(=O)c1c(O)c3c(c(O)c1C2=O)C[C@@](O)(C(=O)CO)C[C@@H]3O[C@H]1C[C@H](N)[C@H](O[C@@H]2CCCCO2)[C@H](C)O1.Cl [Pirarubucin hydrochloride]
pH value [1]: 5.0-6.5

CC(=O)[C@]1(N)Cc2c(O)c3c(c(O)c2[C@@H](O[C@H]2C[C@H](O)[C@H](O)CO2)C1)C(=O)c1ccccc1C3=O [amrubicin hydrochloride, (7S,9S)-9-Acetyl-9-amino-7-[(2-deoxy-β-D-erythro-pentopyranosyl)-oxy]-7,8,9,10-tetrahydro-6,11-dihydroxy-5,12-naphthacenedione]
Increased amount of deaminated compound (3) ([2]; solution about pH 3, 5° C., 0 h): 0.00%
Increased amount of deaminated compound (3) [2, 6]: 0.00%
Increased amount of desaccharified compound (2) [2, 6]: −0.01%
Increased amount of deaminated compound (3) [2, 7]: 0.04%
Increased amount of desaccharified compound (2) [2, 7]: 0.02%
Increased amount of deaminated compound (3) [2, 8]: 0.00%
Increased amount of desaccharified compound (2) [2, 8]: 0.00%
Increased amount of deaminated compound (3) [2, 9]: 0.00%
Increased amount of desaccharified compound (2) [2, 9]: 0.01%
Increased amount of deaminated compound (3) [2, 10]: 0.09%
Increased amount of desaccharified compound (2) [2, 10]: 0.01%
Increased amount of deaminated compound (3) [2, 11]: 0.00%
Increased amount of desaccharified compound (2) [2, 11]: 0.00%
Increased amount of deaminated compound (3) [2, 12]: 0.07%
Increased amount of desaccharified compound (2) [2, 12]: 0.00%
Increased amount of deaminated compound (3) [2, 13]: 0.24%
Increased amount of desaccharified compound (2) [2, 13]: −0.01%
Increased amount of deaminated compound (3) [2, 14]: 0.00%
Increased amount of desaccharified compound (2) [2, 14]: 0.00%
Increased amount of deaminated compound (3) [2, 15]: 0.19%
Increased amount of desaccharified compound (2) [2, 15]: 0.05%
Increased amount of deaminated compound (3) [2, 16]: 0.60%
Increased amount of desaccharified compound (2) [2, 16]: 0.18%
Increased amount of desaccharified compound (2) ([2]; solution about pH 3 with L-cysteine hydrochloride monohydrate and lactose, 5° C., 0 h): 0.00%
pH value at which deaminated compound (3) tends to be generated [3]: ≥ 3.5
pH value [4]: 2.4 to 3.0

CC(=O)C1=Cc2c(O)c3c(c(O)c2[C@@H](OC2CC(O)C(O)CO2)C1)C(=O)c1ccccc1C3=O (some centres unmarked) [deaminated compound (3)]
Ratio at which it may cause turbidity of the injection solution [5]: ≥ 1%

COc1cccc2c1C(=O)c1c(O)c3c(c(O)c1C2=O)C[C@@](O)(C(=O)CO)C[C@@H]3O[C@H]1C[C@H](N)[C@H](O)[C@H](C)O1 [Doxorubicin hydrochloride]
pH value [1]: 5.0-6.0

CC[C@@]1(O)C[C@H](O[C@H]2C[C@H](N(C)C)[C@H](O[C@H]3C[C@H](O)[C@H](O[C@H]4CCC(=O)[C@H](C)O4)[C@H](C)O3)[C@H](C)O2)c2c(cc3c(c2O)C(=O)c2c(O)cccc2C3=O)[C@H]1C(=O)OC [Aclarubicin hydrochloride]
pH value [1]: 5.0-6.5

COc1cccc2c1C(=O)c1c(O)c3c(c(O)c1C2=O)C[C@@](O)(C(C)=O)C[C@@H]3O[C@H]1C[C@H](N)[C@H](O)[C@H](C)O1 [Daunorubicin hydrochloride]
pH value [1]: 5.0-6.5
